According to US20250115571A1, “OXOPIPERAZINE DERIVATIVES” (Inthera Bioscience AG, priority 2017, published 2025):

Tests used:
Assay type in all cases: cell-based
PC3 = test: 9-day colony survival assay (CFA); conditions: Homo sapiens, PC-3, 216 h, PC3 (prostate), read-out: GI50 (50% growth inhibition)
SW948 = test: 5-day cell proliferation assay (CTG); conditions: Homo sapiens, 120 h, SW948, Colorectal
Experimental: (§1) For screening using a proliferation assay, the cells used were cultured at 37° C. with 5% CO2, except for those being cultured with L-15 medium (37° C. and 100% air, TABLE 7). Compound stock solutions (10 mM) were made in sterile water, aliquoted and stored at room temperature. Cisplatin was used as reference Control. Plastic consumables, culture media and supplements were purchased from well-known suppliers (TABLE 8).
(§2) Cell seeding (day −1). When necessary, cells were trypsinized using standard methods (see e.g. example 01). Cells were collected and resuspended in 5-6 mL of appropriate culture medium, counted and diluted to the needed density. Fifty-four μl (microliter) cells were seeded per well in a 384-well plate. Extra four wells per cell line were seeded on an additional plate for Day 0 reading (baseline cell density). Cells were incubated at 37° C. overnight.
(§3) Compound treatment and Day 0 reading (day 0). Tenfold final concentration of test compounds and Cisplatin were prepared in cell culture media (work dilutions). Six μl of work dilution solutions were dispensed into the corresponding wells in 384-well plates to bring the total volume up to 60 μl. Conditions were tested in triplicate. The plates were then incubated at 37° C. for five days. For the day 0 reading, 30 μl of CTG and 6 μl cell culture medium were added to the day 0 plates, contents mixed for 2 min on a plate shaker, and the plates incubated for 10 min at room temperature in the dark. Luminescence was recorded on an EnVision Multi Label Reader (2104-0010A, PerkinElmer, USA).
(§4) Endpoint CTG reading (day 5). The amounts of cells in the plates was determined by endpoint CTG-test. Thirty μl of CTG were added to the 60 μl of cell culture per well, contents mixed for 2 min on a plate shaker, and the plates incubated for 10 min at room temperature in the dark. Luminescence was recorded on an EnVision Multi Label Reader.
(§5) Data analysis. Fifty percent growth inhibition concentrations (GI50) were calculated based on percentage of control data (untreated cells) from each cell line (TABLE 5 (this example) and TABLE 6). Curves were fitted using a nonlinear regression model with a sigmoidal dose response. Examples of obtained curves are depicted in FIG. 2A-2F.

HT-29 = test: 5-day cell proliferation assay (CTG); conditions: Homo sapiens, 120 h, HT-29, Colorectal
Experimental: as §1, §2, §3, §4, §5

HCT116 = test: 5-day cell proliferation assay (CTG); conditions: Homo sapiens, HCT-116, 120 h, HCT116, Colorectal
Experimental: as §1, §2, §3, §4, §5

SW48 = test: 5-day cell proliferation assay (CTG); conditions: Homo sapiens, 120 h, SW48, Colorectal
Experimental: as §1, §2, §3, §4, §5

HS 746.T = test: 5-day cell proliferation assay (CTG); conditions: Homo sapiens, Hs746T, 120 h, Stomach/Gastric
Experimental: as §1, §2, §3, §4, §5

SW620 = test: 5-day cell proliferation assay (CTG); conditions: Homo sapiens, SW-620, 120 h, SW620, Colorectal
Experimental: as §1, §2, §3, §4, §5

HDFA (fibroblast) = test: 5-day cell proliferation assay (CTG); conditions: Homo sapiens, 120 h, Skin, highest tested concentration 10 μM
Experimental: as §1, §2, §3, §4, §5

MRC-5 = test: 5-day cell proliferation assay (CTG); conditions: Homo sapiens, MRC5, 120 h, MRC-5, Lung
Experimental: as §1, §2, §3, §4, §5

SNU-5 = test: 5-day cell proliferation assay (CTG); conditions: Homo sapiens, 120 h, SNU-5, Stomach/Gastric
Experimental: as §1, §2, §3, §4, §5

RPWE-1 = test: 5-day cell proliferation assay (CTG); conditions: Homo sapiens, 120 h, RPWE-1 (Table 6: RWPE-1), Prostate
Experimental: as §1, §2, §3, §4, §5

HS-5 = test: 5-day cell proliferation assay (CTG); conditions: Homo sapiens, HS5, 120 h; HS-5, 5-day cell proliferation
Experimental: as §1, §2, §3, §4, §5

SNU-16 = test: 5-day cell proliferation assay (CTG); conditions: Homo sapiens, 120 h, SNU-16, Stomach/Gastric
Experimental: as §1, §2, §3, §4, §5

Row | SMILES | GI50 (PC3) [nM] | GI50 (SW948) [nM] | GI50 (HT-29) [nM] | GI50 (HCT116) [nM] | GI50 (SW48) [nM] | GI50 (HS 746.T) [nM] | GI50 (SW620) [nM] | GI50 (HDFA (fibroblast)) [nM] | GI50 (MRC-5) [nM] | GI50 (SNU-5) [nM] | GI50 (RPWE-1) [nM] | GI50 (HS-5) [nM] | GI50 (SNU-16) [nM]
1 | CC(C)C[C@@H]1NCCN([C@@H](CC(C)C)C(=O)N2CCC3(C[C@@H]2C)OCC(CN2CCC4(CC2)CC4)CO3)C1=O (stereo partly drawn) [Compound 279, (3S)-1-[(2S)-4-methyl-1-oxo-1-[(3s,6s,8S)-3-{6-azaspiro[2.5]octan-6-ylmethyl}-8-methyl-1,5-dioxa-9-azaspiro[5.5]undec-an-9-yl]pentan-2-yl]-3-(2-methylpropyl)piper-azin-2-one (^≠), isomer Z] | 1.5 | 3 | 4 | 3 | 6 | 5 | 2 | > 10000 | 10 | 3 | 3 | 3 | 10
2 | CC(C)C[C@@H]1NCCN([C@@H](CC(C)C)C(=O)N2CCC3(C[C@@H]2C)OCC(CN2CCCC2)CO3)C1=O (stereo partly drawn) [Compound 258, (3S)-1-[(2S)-4-methyl-1-oxo-1-[(3s,6s,8S)-8-methyl-3-(pyrrolidin-1-ylmethyl)-1,5-dioxa-9-azaspiro[5.5]undec-an-9-yl]pentan-2-yl]-3-(2-methylpropyl)piper-azin-2-one (^≠), isomer Z] | 3 | 10 | 4 | 5 | 9 | 8 | 4 | > 10000 | 12 | 4 | 4 | 5 | 13
3 | CC(C)C[C@@H]1NCCN([C@@H](CC(C)C)C(=O)N2CCC3(C[C@@H]2C)OCC(CN2CCC2)CO3)C1=O (stereo partly drawn) [Compound 284, (3S)-1-[(2S)-4-methyl-1-oxo-1-[(3s,6s,8S)-3-(azetidin-1-ylmethyl)-8-methyl-1,5-dioxa-9-azaspiro[5.5]undec-an-9-yl]pentan-2-yl]-3-(2-methylpropyl)piper-azin-2-one (^≠), isomer Z] | 3 | 12 | 7 | 9 | 14 | 14 | 7 | > 10000 | 25 | 6 | 10 | 10 | 22
